Legend:
Adenosine A2A = Adenosine A2A (Homo sapiens (Human), UniProt P29274); test: A2A Tag-lite HTRF assay (Example C); conditions: Tag-lite Adenosine A2A labeled cells, Red antagonist fluorescent ligand 12.5 nM, one-site competitive binding; read-out: A2A_Ki
Method: Example C. A2A Tag-Lite® HTRF Assay
Assays were conducted in black low volume 384-well polystyrene plates (Greiner 784076-25) in a final volume of 10 μL. Test compounds were first serially diluted in DMSO and 100 nl added to the plate wells before the addition of other reaction components. The final concentration of DMSO was 1%. Tag-lite® Adenosine A2A labeled cells (CisBio C1TT1A2A) were diluted 1:5 into Tag-lite buffer (CisBio LABMED) and spun 1200 g for 5 mins. The pellet was resuspended at a volume 10.4× the initial cell suspension volume in Tag-lite buffer, and Adenosine A2A Receptor Red antagonist fluorescent ligand (CisBio L0058RED) added at 12.5 nM final concentration. 10 ul of the cell and ligand mix was added to the assay wells and incubated at room temperature for 45 minutes before reading on a PHERAstar FS plate reader (BMG Labtech) with HTRF 337/620/665 optical module. Percent binding of the fluorescent ligand was calculated; where 100 nM of A2A antagonist control ZM 241385 (Tocris 1036) displaces the ligand 100% and 1% DMSO has 0% displacement. The % binding data versus the log of the inhibitor concentration was fitted to a one-site competitive binding model (GraphPad Prism version 7.02) where the ligand constant=12.5 nM and the ligand Kd=1.85 nM.

[1] = molecular target: human adenosine A2B receptor (Homo sapiens (Human), UniProt P29275); test: Adenosine A2B receptor cyclic AMP GS assay (Example B); format: cell-based; conditions: HEK-293 cells expressing human A2B, agonist NECA 12 nM, cAMP accumulation (FRET); read-out: A2B_cAMP_EC50
Sequence of human adenosine A2B receptor (P29275 whole entry): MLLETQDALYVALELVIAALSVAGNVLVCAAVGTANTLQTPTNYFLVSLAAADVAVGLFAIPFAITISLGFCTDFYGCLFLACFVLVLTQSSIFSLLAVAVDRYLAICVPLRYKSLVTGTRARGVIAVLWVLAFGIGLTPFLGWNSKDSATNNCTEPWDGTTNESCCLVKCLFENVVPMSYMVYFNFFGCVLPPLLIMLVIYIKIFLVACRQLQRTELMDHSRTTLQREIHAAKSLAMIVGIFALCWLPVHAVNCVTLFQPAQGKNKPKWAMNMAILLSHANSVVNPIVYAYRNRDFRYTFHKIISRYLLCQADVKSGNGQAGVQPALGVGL
Method: Example B. Adenosine A2B Receptor Cyclic AMP GS Assay
Stably transfected HEK-293 cells expressing the human adenosine A2B receptor (Perkin Elmer) were maintained in MEM culture medium with 10% FBS and 100 μg/ml Geneticin (Life Technologies). 18 to 24 hours prior to assay, geneticin was removed from culture. The cisbio cAMP-GS Dynamic kit utilizing the FRET (Fluorescence Resonance Energy Transfer) technology was used to measure cAMP accumulation in the cells. Compounds of the present disclosure at an appropriate concentration were mixed with 10000 cells/well in white 96 well half area plates (Perkin Elmer) for 30 min at RT gently shaking. Agonist, NECA (R&D Technologies) at 12 nM was added to each well for 60 min at RT gently shaking. Detection reagents, d2-labeled cAMP (acceptor) and anti-cAMP cryptate (donor) were added to each well for 60 min at RT gently shaking. Plates were read on Pherastar (BMG Labtech), fluorescence ratio 665/620 was calculated and EC50 determination was performed by fitting the curve of percent of control versus the log of the compound concentration using GraphPad Prism.

Sequence of Adenosine A2A (P29274 whole entry): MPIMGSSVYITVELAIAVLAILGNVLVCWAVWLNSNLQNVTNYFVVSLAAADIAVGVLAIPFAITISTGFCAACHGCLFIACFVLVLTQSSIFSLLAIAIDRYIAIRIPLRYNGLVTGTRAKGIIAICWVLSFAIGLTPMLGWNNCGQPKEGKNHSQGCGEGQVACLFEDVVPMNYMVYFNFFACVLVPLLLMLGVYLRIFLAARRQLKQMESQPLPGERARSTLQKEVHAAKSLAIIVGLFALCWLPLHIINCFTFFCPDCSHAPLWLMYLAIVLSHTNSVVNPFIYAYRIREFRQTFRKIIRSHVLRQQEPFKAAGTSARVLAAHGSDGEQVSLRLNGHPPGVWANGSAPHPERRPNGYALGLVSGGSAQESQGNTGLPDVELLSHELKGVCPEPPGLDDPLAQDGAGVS

Ki (Adenosine A2A) [nM] | EC50 [1] [nM] | SMILES
≤ 10 | 10 to 100 | Cc1cccc(COc2nc3c(-c4ccc(=O)n(C)c4)c(-c4cccc(C#N)c4)nc(N)n3n2)n1 [Example 55, 3-(5-amino-8-(1-methyl-6-oxo-1,6-dihydropyridin-3-yl)-2-((6-methylpyridin-2-yl)methoxy)-[1,2,4]triazolo[1,5-c]pyrimidin-7-yl)benzonitrile]
≤ 10 | 10 to 100 | Cc1cccc(COc2nc3c(-c4ccncc4C)c(-c4cccc(C#N)c4)nc(N)n3n2)n1 [Example 57, 3-(5-amino-2-((6-methylpyridin-2-yl)methoxy)-8-(3-methylpyridin-4-yl)-[1,2,4]triazolo[1,5-c]pyrimidin-7-yl)benzonitrile]
≤ 10 | 100 to 1000 | Cc1cc(-c2c(-c3cccc(C#N)c3)nc(N)n3nc(OCc4cccc(C)n4)nc23)cc(C)n1 [Example 58, 3-(5-amino-8-(2,6-dimethylpyridin-4-yl)-2-((6-methylpyridin-2-yl)methoxy)-[1,2,4]triazolo[1,5-c]pyrimidin-7-yl)benzonitrile]
≤ 10 | 10 to 100 | COc1cc(-c2c(-c3cccc(C#N)c3)nc(N)n3nc(OCc4cccc(C)n4)nc23)cc(C)n1 [Example 59, 3-(5-amino-8-(2-methoxy-6-methylpyridin-4-yl)-2-((6-methylpyridin-2-yl)methoxy)-[1,2,4]triazolo[1,5-c]pyrimidin-7-yl)benzonitrile]
≤ 10 | 10 to 100 | Cc1cccc(CNc2nc3c(-c4ccncn4)c(-c4cccc(C#N)c4)nc(N)n3n2)n1 [Example 65, 3-(5-amino-2-(((6-methylpyridin-2-yl)methyl)amino)-8-(pyrimidin-4-yl)-[1,2,4]triazolo[1,5-c]pyrimidin-7-yl)benzonitrile]
≤ 10 | 10 to 100 | Cc1cccc(CNc2nc3c(-c4ccc(=O)n(C)n4)c(-c4cccc(C#N)c4)nc(N)n3n2)n1 [Example 67, 3-(5-amino-8-(1-methyl-6-oxo-1,6-dihydropyridazin-3-yl)-2-(((6-methylpyridin-2-yl)methyl)amino)-[1,2,4]triazolo[1,5-c]pyrimidin-7-yl)benzonitrile]
≤ 10 | ≤ 10 | Cc1cccc(CNc2nc3c(-c4ccncc4C)c(-c4cccc(C#N)c4)nc(N)n3n2)n1 [Example 68, 3-(5-amino-2-(((6-methylpyridin-2-yl)methyl)amino)-8-(3-methylpyridin-4-yl)-[1,2,4]triazolo[1,5-c]pyrimidin-7-yl)benzonitrile]
≤ 10 | > 1000 | Cc1cc(-c2c(-c3cccc(C#N)c3)nc(N)n3nc(NCc4cccc(C)n4)nc23)cc(C)n1 [Example 69, 3-(5-amino-8-(2,6-dimethylpyridin-4-yl)-2-(((6-methylpyridin-2-yl)methyl)amino)-[1,2,4]triazolo[1,5-c]pyrimidin-7-yl)benzonitrile]
≤ 10 | 100 to 1000 | COc1cc(-c2c(-c3cccc(C#N)c3)nc(N)n3nc(NCc4cccc(C)n4)nc23)cc(C)n1 [Example 70, 3-(5-amino-8-(2-methoxy-6-methylpyridin-4-yl)-2-(((6-methylpyridin-2-yl)methyl)amino)-[1,2,4]triazolo[1,5-c]pyrimidin-7-yl)benzonitrile]
